Values quoted from earlier work, collected in patent US12533334B2, “Compositions and methods for modulating equine fatty acid profiles” (KENTUCKY EQUINE RESEARCH, INC., priority 2021, dated 2026).

System: aspirin-induced gastric hemorrhage
Conditions: rats subjected to aspirin-induced gastric hemorrhage, dietary supplementation

| SMILES | Gastric hemorrhage |
| --- | --- |
| CCCCC/C=C\C/C=C\C/C=C\CCCCC(=O)O [GLA, gamma linolenic acid] | no gastric hemorrhage |
| CCCCC/C=C\C/C=C\CCCCCCCC(=O)O [LA, linoleic acid] | 3 of 8 |
